Patent US10570179B2, “Substituted urea depsipeptide analogs as activators of the CLPP endopeptidase” (priority 2016, dated 2020)
Numbered stars: 1 amine (or outer) side, 2 acyl side, 3 side chain; on linkers, the order of the positions; unused ones are H or OH. Bridge positions count the residues as written; N and C are the ends. Square brackets hold non-standard residues; d marks the D form. Peptide text beside a SMILES is read from it. * marks the point of attachment. Piperazine(2S-CO,4-Me) = CN1CCN[C@H](C(=O)O)C1; Phe(3,5-F2) = N[C@@H](Cc1cc(F)cc(F)c1)C(=O)O; NH(4-Cl-2-F-phenyl) = Fc1cc(Cl)ccc1N*; Pro(4R-Me) = C[C@H]1CN[C@H](C(=O)O)C1; CO = O=C([*:1])[*:2]

Key:
[1] = Microsomal metabolic stability; format: in vitro ADME, human; details: human, pH 7.4
[2] = Plasma protein binding, rapid equilibrium dialysis; format: in vitro ADME, mouse; details: mouse, 4 h, 10 μM, pH 7.4

C[C@@H]1C[C@H]2C(=O)OC[C@H](NC(=O)[C@H](Cc3cc(F)cc(F)c3)NC(=O)Nc3ccc(Cl)cc3F)C(=O)N3CCC[C@H]3C(=O)N3CCN(C)C[C@H]3C(=O)N[C@@H](C)C(=O)N2C1 [Compound 34] ({NH(4-Cl-2-F-phenyl)-CO}-[Phe(3,5-F2)]SP[Piperazine(2S-CO,4-Me)]A[Pro(4R-Me)]; ester 2-C)
Human [1]: 0.77 ± .775 h
Mouse [2]: 97.5 ± 7.5%
